Laboratory results from PMC9087011 (Clinical Pharmacology and Therapeutics, 2022).

Experiments:
[1] = test system: SARS‐CoV‐2; settings: oral administration; cited from earlier work
[2] = 500 mg single dose, fasted, no ritonavir; individual values (N2=2)
[3] = Overall safety and tolerability; assay type: in vivo, human; settings: for Safety and tolerability (overall): SAD, MAD and supratherapeutic cohorts, healthy participants
[4] = clinical; settings: human, in vivo
[5] = test system: SARS‐CoV‐2 viral replication; settings: in vitro EC90 adjusted for plasma protein binding; cited from earlier work
[6] = test system: cytochrome P450 3A4 (CYP3A4); settings: cited from earlier work

Question: Which results are given for `CC(C)(C)[C@H](NC(=O)C(F)(F)F)C(=O)N1C[C@H]2[C@@H]([C@H]1C(=O)N[C@H](C#N)C[C@@H]1CCNC1=O)C2(C)C` [Nirmatrelvir]?
Answer: Effect on pulmonary viral titers [1]: dose‐dependent reduction of pulmonary viral titers; AUCinf [2]: 5,450 ng hour/mL; t ½ [2]: 25.6 h; Safety and tolerability (overall) [3]: safe and well‐tolerated; Safety and tolerability (overall) ([3]; listed as nirmatrelvir): no safety concerns were identified; Changes in laboratory values (≥ grade 2), vital sign or ECG measurements ([3]; with or without ritonavir): No clinically meaningful changes; Tmax [4]: 1 h; Cmax ([4]; 150 mg): 668 ng/mL; Tmax ([4]; 150 mg): 0.634 h; Cmax ([4]; 500 mg): 674 ng/mL; Tmax ([4]; 500 mg): 1 h; total plasma EC90 (90% inhibition of SARS‐CoV‐2 viral replication) [5]: 0.292 µg/mL; Metabolism [6]: primarily metabolized by cytochrome P450 3A4 (CYP3A4)
